Measurements as given in patent publication US20250114313A1, “OLIGO-BENZAMIDE ANALOGS AND THEIR USE IN CANCER TREATMENT” (BOARD OF REGENTS, THE UNIVERSITY OF TEXAS SYSTEM, priority 2022, published 2025).

How the values were obtained:
[1] = tested on: TNBC cells (MDA-MB-231); test: Live cell imaging with SYTOX Green, cell death in TNBC cells; type: cell-based, Human; details: within 30 hours of treatment; control <1%
Description: Live cell imaging: Live cell images were acquired by Lionheart FX automated microscope (BioTek). Cells were plated one day before the experiment. For cell death assay, 0.2 μM SYTOX Green was added into the plate 15 min before the experiment.

[2] = target: T1, LAL lipase activity (Homo sapiens, UniProt P38571); test: Lipase activity assay (4-MUP), SUM-159 cell lysate; type: biochemical; details: SUM-159 cells; 30 μM
T1 construct: heat stability of LAL or vinculin protein in SUM-159 cells; endogenous in cells; host or cells: SUM-159
T1 sequence (P38571 77-399): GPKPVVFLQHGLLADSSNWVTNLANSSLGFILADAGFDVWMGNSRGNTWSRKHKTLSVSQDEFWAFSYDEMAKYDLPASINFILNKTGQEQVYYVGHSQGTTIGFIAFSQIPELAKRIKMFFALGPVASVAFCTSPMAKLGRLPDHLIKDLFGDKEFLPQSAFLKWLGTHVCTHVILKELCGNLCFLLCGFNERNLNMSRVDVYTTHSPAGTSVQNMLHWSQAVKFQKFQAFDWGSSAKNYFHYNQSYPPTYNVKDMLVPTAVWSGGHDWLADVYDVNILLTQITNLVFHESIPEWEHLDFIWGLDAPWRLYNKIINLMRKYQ
Description: Lipase activity assay: Lipase activity assays were performed as described previously (Dairaku, et al)^37. Briefly, a 0.345 mM substrate solution was prepared from 1.2 mL of 13.3 mM 4-MUP and 42 mL of 100 mM sodium acetate buffer pH 4.0, 1.0% (v/v) Triton X-100 and 3.0 mL of 0.5% (w/v) cardiolipin. For the enzyme reaction, 50 μL of the substrate in buffer solution, 40 μL of diluted cell lysate and 10 μL of DMSO or 30 μM Lalistat2 or 30 μM ERX-41 were combined in a black 96-well plate. The plates were sealed with an adhesive aluminum film and incubated in a 37° C. incubator for 1 h. The reactions were terminated using 200 μL of 150 mM EDTA at pH 11.5. The fluorescence of the plates were read immediately with synergy H1 fluorescence microplate reader (BioTek) using a 365-nm excitation filter and a 450-nm emission filter. The LIPA lipase activity was calculated by subtracting the enzymatic activity of the inhibited (with Lalistat2) reaction from that of the uninhibited (without Lalistat2) reaction.

[3] = tested on: SUM-159 cells; test: Airyscan / live cell confocal imaging of ER tubule width, SUM-159 mCherry-RAMP4; type: cell-based, Human
Description: Live cell confocal and Airyscan imaging: To visualize ER structure, stable SUM-159 cell lines expressing mCherry-RAMP4 were established. pLenti-X1-hygro-mCherry-RAMP4 was purchased from Addgene (Addgene #118391; //n2t.net/addgene:118391; RRID:Addgene_118391) (via Jacob Corn).^35 The live cell images were acquired by Confocal Zeiss LSM880 Airyscan. ER tubule width was calculated by drawing 1px-wide line scans perpendicular to the long axis of individual ER tubules. In MATLAB, the peak intensity along each line scan was determined and the distance between the half maximum intensity on either side of the peak was measured. The code for this analysis is available at: //github.com/andmoo91/HalfMaxScript.

[4] = tested on: D2A1 xenografts; test: D2A1 syngeneic tumor model; type: in vivo, BALB/c mice; details: 10 mg/kg daily
Description: Animal Studies: All animal experiments were performed using UTHSA and UTSW IACUC approved protocols. For cell based xenograft tumor assays, TNBC cells (2×10^5-2×10^6) were mixed with an equal volume of matrigel and implanted in the mammary fat pads of 6-week-old female athymic nude mice as described^33. BALB/c mice were used for D2A1 syngeneic model. Once tumors reached measurable size, mice were divided into control (vehicle) and ERX-41 (10 mg/kg/oral) treatment groups. Mice bearing TNBC PDX tumors were purchased from Jackson laboratory (TM00089; TM00096; TM00098). TNBC PDX line UTPDX0001 establishment was earlier described^38. WHIM-20 ER+PDX model was purchased from Horizon Labs. OCa-PDX-38 was received from UTHSA ObGyn tissue procurement core. When tumors reached ˜750 mm^3 they were dissected into 2 mm^3 pieces and implanted into the mammary fat pads of 6 weeks old female SCID or NSG mice. When the tumor volume reached ˜200 mm^3, mice were randomized for treatment. The mice were monitored daily for adverse toxic effects and tumor volume was measured every 3-4 days using calipers. For establishing ES2 tumors, ES2/GFP/LUC cells were injected i.p. and tumors were measured twice a week using Xenogen in vivo imaging system. […] The mice were monitored daily for adverse toxic effects. […] The sections were scored by two independent evaluators blinded to the patient's clinical status.

[5] = tested on: HSPA5, DDIT3, sXBP1 mRNA in HMEC cells; test: RT-qPCR of ER stress / UPR genes, HMEC; type: cell-based, human; details: 1 μM
[6] = tested on: SUM-159 LIPA KO xenografts; test: SUM-159 LIPA KO xenografts; type: in vivo, SCID mice; details: i.p., 10 mg/kg/day
Description: Knockout studies: For xenograft knockout tumor models, 1.8×10^6SUM159 parental, or 1.8×10^6SUM159-LIPA KO cells were harvested with 1% trypsin-EDTA, washed and resuspended in sterile PBS. Cells were initially implanted into the mammary fat pads of six-week-old female C.B-17 (SCID) mice purchased from Envigo (Indianapolis, IN, USA). Mice were monitored twice weekly for tumor growth measured by Vernier calipers where tumor volume was calculated by the formula (length×width^2)/2. Tumors were dissected into 2 mm cubes when they reached 800 mm^3 in size and subsequently implanted into the mammary fat pad of twelve SCID female mice. Once tumor fragments reached 150 mm^3 in size, mice were randomly divided into vehicle group (n=6, control, 0.3% Hydroxy cellulose, i.p.) and treatment group (n=6, ERX-41, 10 mg/kg/day/i.p.). Institutional guidelines were followed to determine experimental end points.

[7] = tested on: ERα-positive cell lines; test: WST assay, ERα-positive cell lines; type: cell-based; details: Homo sapiens, read-out: anti-proliferative IC50, WST
Description: Cell viability assays: Cells were seeded in 96-well plates (2×10^3 cells/well) one day before the treatment. Cells were treated with varying concentrations of ERX-41 or ERX-11 analogs for 3-6 days. Then effects of ERX-41 or ERX-11 analogs on cell viability were measured in triplicate or sextuplicate with multiple biological replicates using the WST-1 (Promega), MTT as previously described^33 or CellTiter-Glo 2.0 (Promega) assays.

[8] = parental SUM-159, 1 μM, from ~200 nm

Structure (SMILES): CC(C)COc1cc(C(=O)Nc2ccc(C(=O)N[C@H]3CC[C@H](C)CC3)cc2OCC(C)C)ccc1NC(=O)c1ccc([N+](=O)[O-])c(OCCO)c1 [ERX-41]
- cells dead [1]: > 90%
- lipase activity of LIPA [2]: no inhibition of lipase activity
- ER tubule width, mean±S.D., airyscan ([3]; 1 μM, 2 h, 0 h = 260±80 nm): 660±320 nm
- measured ER dilation following treatment ([3]; discussion): ~600 nm
- ER tubule diameter, live cell confocal, 2 h [3, 8]: ~500 nm
- ER tubule diameter, live cell confocal, 4 h [3, 8]: ~620 nm
- growth of D2A1 xenografts [4]: significantly reduce the growth
- upregulation of HSPA5, DDIT3, sXBP1 mRNA in HMEC [5]: not in HMEC cells
- response of LIPA KO xenografts [6]: did not respond
- IC50 [7]: 50 to 1000 nM
